Measurements as given in PMC4801368, “Functional and Biochemical Characterization of Alvinella pompejana Cys-Loop Receptor Homologues” (PLoS ONE, 2016).
Where two headings read alike, the source gives them in different places.

Key:
Alpo5-wt = test: Two-electrode voltage clamp (TEVC) on Alpo5-wt expressed in Xenopus laevis oocytes; assay type: cell-based, Alvinella pompejana; conditions: for Hill coefficient / EC50: concentration-activation curve, n = 4; for EC50: Hill fit, -80 mV
Description: (§1) For the expression in Xenopus laevis oocytes, the genes coding for AlpoX-wt were subcloned into the vector pGEM-HE [38]. After NheI-treatment, the linearized plasmid DNA was transcribed to produce capped RNA by using the T7 mMESSAGE-mMACHINE transcription kit (Ambion). Four nanogram of the resulting RNA was injected into the cytosol of stage V and VI oocytes either manually or with an automated injection system (Roboinject, MultiChannelSystems). Oocyte preparations and injections were done using standard procedures.
(§2) One to five days after injection, electrophysiological recordings were performed by conventional or automated TEVC (HiClamp, MultiChannel Systems). […] Unless indicated otherwise, cells were held at a fixed potential of –80 mV throughout the experiment. To minimize heat shock, all preparation and recording procedures were carried out at 16°C [40]. Functional characterization consisted of the screening of potential ligands, the establishment of concentration-activation curves and the determination of ion selectivity. Different small molecules were tested for their effects on AlpoX-wt, such as dopamine, taurine, γ-aminobutyric acid (GABA), glycine and ivermectin (the complete list and the corresponding concentrations are mentioned in Table 1). To determine concentration-activation curves, cells were exposed to increasing concentrations of the test substance. To assess ion selectivity, current-voltage (I-V) relationships were determined in control OR2 solution as well as in medium in which chloride ions were substituted by gluconate. These I-V curves were generated by voltage ramps applied within 4 s and constructed around the reversal potential (Erev ± 80 mV). Leak properties of the cells measured in control conditions were subtracted from the I-V curves measured during exposure to 10 mM GABA.
(§3) Data were acquired either on a manual setup or on an automated recording system (HiClamp, MultiChannel Systems). […] Data acquired with the HiClamp were analyzed using the corresponding software.

Alpo6-wt = test: Two-electrode voltage clamp (TEVC) on Alpo6-wt expressed in Xenopus laevis oocytes; assay type: cell-based, Alvinella pompejana; conditions: for Hill-coefficients: activation-response curves; for EC50: concentration-activation curve
Description: as §1, §2, §3

[1] = molecular target: Alpo4-wt (Alvinella pompejana); test: negative stain EM; purified protein 0.03 mg/mL on carbon-coated copper grids, 1% uranyl formate, 120 kV; 2D class averages for Alpo4-wt

Row | Compound | agonist type (Alpo5-wt) | Hill coefficient (Alpo5-wt) | agonist type (Alpo6-wt) | Hill-coefficients (Alpo6-wt) | current evoked by a saturating concentration relative to current evoked by a saturating concentration of glycine (Alpo6-wt; on average) | EC50 (Alpo5-wt) | EC50 (Alpo6-wt; n = 3, read-out: EC50 values) | currents evoked at a saturating concentration relative to responses evoked by a saturating concentration of glycine (Alpo5-wt; on average) | EC50 (Alpo6-wt; n = 3, read-out: EC50 value) | stoichiometry N [1]
1 | NCCCC(=O)O [GABA, γ-aminobutyric acid] | full-agonists | 2.49 ± 0.09 | partial agonistic effect | 1.94 ± 0.15 | 86% | – | – | – | – | –
2 | NCC(=O)O [glycine] | full-agonists | 2.68 ± 0.08 | full agonists | 2.20 ± 0.16 | – | 291 ± 16.4 µM | 22100 ± 4530 µM | – | – | –
3 | NCCS(=O)(=O)O [taurine] | partial agonist | 2.51 ± 0.18 | full agonists | 1.87 ± 0.12 | – | 370 ± 30.2 µM | – | 74% | 227 ± 30.5 µM | –
4 | Alpo4-wt (receptor) | – | – | – | – | – | – | – | – | – | 5
